Patent US8058306B2, “Phenyl pyrrole aminoguanidine derivatives” (Action Pharma A/S, priority 2006, dated 2011)

What was measured:
murine MC1 receptor = molecular target: T1, murine MC1 receptor (Mus musculus, UniProt Q01727); assay: [125I]-NDP-MSH radio-ligand binding, MC1 receptor (B16-F1 melanoma cells); settings: 90 min/22° C.
T1 construct: murine B16-F1 melanoma cells expressing MC1, but not other MC receptors, were used; endogenous in cells; host or cells: murine B16-F1 melanoma cells
Protocol: (§1) Determination of binding affinities for MC receptors was performed by [^125I]-[Nle4,D-Phe7]α-MSH ([^125I]-NDP-MSH) radio-ligand binding. In short, murine B16-F1 melanoma cells expressing MC1, but not other MC receptors, were used for binding affinity studies against the murine MC1 receptor (Siegrist et al.; 1988, J. Recept. Res., 8(1-4):323-43). For human MC3, MC4 and MC5 receptor affinities human recombinant CHO cells were used (Schioth et al. 1997, Neuropeptides 31:565-71, 1997). Cells were suspended in HEPES buffer and by use of microwell plates radio-ligands, as well as test compound, in the concentration range of 10^−10 to 10^−6 were added. After incubation at 37° C. (22° C. for the MC1 receptor assay) separation of bound and free [^125I]-NDP-MSH was done by multiple washings with buffer.
(§2) The results were expressed as a percent of control specific binding obtained in the presence of the test compounds. The IC50 values (concentration causing a half-maximal inhibition of control specific binding) and Hill coefficients (nH) were determined by non-linear regression analysis of the competition curves using Hill equation curve fitting. The inhibition constants (Ki) were calculated from the Cheng Prusoff equation (Ki=IC50/(1+(L/KD)), where L=concentration of radio-ligand in the assay, and KD=affinity of the radio-ligand for the receptor).

human MC3 receptor = molecular target: T2, human MC3 receptor (Homo sapiens, UniProt P41968); assay: [125I]-NDP-MSH radio-ligand binding, MC3 (h) receptor (recombinant CHO cells); settings: 60 min/37° C.
T2 construct: expressed in transfected cells; host or cells: CHO cells
Protocol: as §1, §2

human MC4 receptor = molecular target: T3, human MC4 receptor (Homo sapiens, UniProt P32245); assay: [125I]-NDP-MSH radio-ligand binding, MC4 (h) receptor (recombinant CHO cells); settings: 120 min/37° C.
T3 construct: expressed in transfected cells; host or cells: CHO cells
Protocol: as §1, §2

human MC5 receptor = molecular target: T4, human MC5 receptor (Homo sapiens, UniProt P33032); assay: [125I]-NDP-MSH radio-ligand binding, MC5 (h) receptor (recombinant CHO cells); settings: 60 min/37° C.
T4 construct: expressed in transfected cells; host or cells: CHO cells
Protocol: as §1, §2

Measured: Ki

T1 sequence (Q01727 whole entry): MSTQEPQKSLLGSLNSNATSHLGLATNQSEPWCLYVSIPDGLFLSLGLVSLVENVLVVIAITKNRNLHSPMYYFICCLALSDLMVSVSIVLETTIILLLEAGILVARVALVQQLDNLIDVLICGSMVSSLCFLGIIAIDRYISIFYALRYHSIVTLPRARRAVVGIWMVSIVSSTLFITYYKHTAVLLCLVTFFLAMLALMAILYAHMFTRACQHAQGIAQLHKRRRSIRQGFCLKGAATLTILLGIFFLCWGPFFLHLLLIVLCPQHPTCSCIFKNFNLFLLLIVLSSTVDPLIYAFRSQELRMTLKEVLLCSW
T3 sequence (P32245 whole entry): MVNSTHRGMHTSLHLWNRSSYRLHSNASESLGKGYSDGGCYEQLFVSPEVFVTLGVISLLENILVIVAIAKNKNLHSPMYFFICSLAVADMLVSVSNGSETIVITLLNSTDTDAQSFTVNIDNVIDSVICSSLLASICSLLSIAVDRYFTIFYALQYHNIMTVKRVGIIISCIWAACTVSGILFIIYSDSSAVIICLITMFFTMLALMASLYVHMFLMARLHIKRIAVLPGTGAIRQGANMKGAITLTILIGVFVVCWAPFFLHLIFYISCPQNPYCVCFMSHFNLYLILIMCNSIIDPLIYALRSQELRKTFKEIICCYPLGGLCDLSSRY
T4 sequence (P33032 whole entry): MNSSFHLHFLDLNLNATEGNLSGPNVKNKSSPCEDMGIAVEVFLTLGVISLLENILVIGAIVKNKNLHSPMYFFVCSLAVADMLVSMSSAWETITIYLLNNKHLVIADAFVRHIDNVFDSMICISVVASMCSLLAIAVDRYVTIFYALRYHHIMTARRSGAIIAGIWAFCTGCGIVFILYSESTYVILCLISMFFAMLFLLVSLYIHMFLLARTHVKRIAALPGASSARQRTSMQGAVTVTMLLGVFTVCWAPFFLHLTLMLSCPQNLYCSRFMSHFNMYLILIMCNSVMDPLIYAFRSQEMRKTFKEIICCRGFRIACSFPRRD
T2 sequence (P41968 whole entry): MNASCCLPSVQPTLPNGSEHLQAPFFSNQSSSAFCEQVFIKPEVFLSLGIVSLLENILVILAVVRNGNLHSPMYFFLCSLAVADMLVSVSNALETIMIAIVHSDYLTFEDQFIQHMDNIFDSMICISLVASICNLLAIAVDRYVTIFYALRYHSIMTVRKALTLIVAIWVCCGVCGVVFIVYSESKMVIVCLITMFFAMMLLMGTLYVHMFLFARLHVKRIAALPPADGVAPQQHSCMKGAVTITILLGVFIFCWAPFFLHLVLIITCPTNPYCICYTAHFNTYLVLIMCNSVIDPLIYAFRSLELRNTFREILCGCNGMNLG

N=C(N)NN=Cc1cccn1-c1ccccc1[N+](=O)[O-] [Reference-compound 2, [1-[2-nitrophenyl)-1H-pyrrol-2-yl-methyleneamino]guanidinium acetate, reference compound]
> 1000 nM: all assays above

N=C(N)NN=Cc1cccn1-c1ccc(Cl)cc1 [Reference-compound 1, [1-[4-chlorophenyl)-1H-pyrrol-2-yl-methyleneamino]guanidinium acetate, reference compound]
> 1000 nM: all assays above
